In brackets after ≈: the same amount, converted by molar mass. Like-named read-outs stand apart in the source and are kept apart here.
Columns and labels:
[1] = Thermogravimetric analysis (onset decomposition temperature); format: physicochemical
Source text: FIG. 6B illustrates thermogravimetric profiles of TOPO, LauA, and TOPO: LauA (1:1), according to some embodiments. Thermogravimetric analysis is another essential solvent characterization method and is vital for identifying the maximum operational temperature range of a solvent. The onset decomposition temperature (Tonset) marks the start of a noticeable weight loss, indicating initial thermal degradation. Table 3 lists the onset temperatures for TOPO: LauA (1:1), and its thermogravimetric profile is shown in FIG. 6B along with the profiles of pure TOPO and lauric acid for comparison. Hydrogen bonding plays an important role in DES stability by reducing molecular volatility and increasing the energy needed for decomposition. […] This intermediate Tonset reflects the delicate balance of H-bonding strength in the DES that is affected from both the stability of the individual components and the new interactions they form when combined.

rat = settings: cited from earlier work
[2] = cited from earlier work
[3] = cited from earlier work; remark: listed apart in the source
[4] = 25° C.; cited from earlier work

Onset decomposition temperature (Tonset) [1]	SMILES	water solubility [2]	serum elimination half-lives [3]	also measured
281 °C	CCCCCCCCP(=O)(CCCCCCCC)CCCCCCCC [TOPO, trioctylphosphine oxide]	0.15 µg/mL (≈ 0.388 µM)	–	LD50 (oral, rat) (rat; in vivo, po): 2,000 mg/kg
–	O=S(=O)(O)C(F)(F)C(F)(F)C(F)(F)C(F)(F)C(F)(F)C(F)(F)C(F)(F)C(F)(F)F [PFOS, perfluorooctane sulfonic acid]	–	3.8 years	–
207 °C	CCCCCCCCCCCC(=O)O [Lauric acid, lauric acid]	0.4 µg/mL (≈ 2 µM)	–	–
–	Cc1ccc(C(C)C)c(O)c1 [thymol]	–	–	inherent density [4]: 0.967 g/mL
–	C[N+](C)(C)CCO.[Cl-] [choline chloride, reference compound]	–	–	LD50 (oral, rat) (rat; oral): 3,900 mg/kg
–	O=C(O)C(F)(F)C(F)(F)C(F)(F)C(F)(F)C(F)(F)C(F)(F)C(F)(F)F [PFOA, perfluorooctanoic acid]	–	5.4 years	–

— US20250340457A1, “SYSTEMS AND METHODS FOR EXTRACTION OF FLUORINATED HYDROCARBONS” (Khalifa University of Science and Technology, priority 2024, published 2025)
